Source: patent publication US20210255193A1, “LYSINE REACTIVE PROBES AND USES THEREOF” (The Scripps Research Institute, priority 2017, published 2021)

Experiments:
Test in all cases: competitive isoTOP-ABPP
Assay type in all cases: binding
[1] = target: T1, DYNC1H1 Cytoplasmic dynein 1 heavy chain 1 (Homo sapiens, UniProt Q14204); conditions: 50 uM, 231 sol, in vitro
T1 construct: isoTOP-ABPP experiments performed in cell lysates (in vitro); endogenous in cells; host or cells: soluble proteome of human cancer cell lines (MDA-MB-231, Ramos, Jurkat)
T1 sequence (Q14204 whole entry): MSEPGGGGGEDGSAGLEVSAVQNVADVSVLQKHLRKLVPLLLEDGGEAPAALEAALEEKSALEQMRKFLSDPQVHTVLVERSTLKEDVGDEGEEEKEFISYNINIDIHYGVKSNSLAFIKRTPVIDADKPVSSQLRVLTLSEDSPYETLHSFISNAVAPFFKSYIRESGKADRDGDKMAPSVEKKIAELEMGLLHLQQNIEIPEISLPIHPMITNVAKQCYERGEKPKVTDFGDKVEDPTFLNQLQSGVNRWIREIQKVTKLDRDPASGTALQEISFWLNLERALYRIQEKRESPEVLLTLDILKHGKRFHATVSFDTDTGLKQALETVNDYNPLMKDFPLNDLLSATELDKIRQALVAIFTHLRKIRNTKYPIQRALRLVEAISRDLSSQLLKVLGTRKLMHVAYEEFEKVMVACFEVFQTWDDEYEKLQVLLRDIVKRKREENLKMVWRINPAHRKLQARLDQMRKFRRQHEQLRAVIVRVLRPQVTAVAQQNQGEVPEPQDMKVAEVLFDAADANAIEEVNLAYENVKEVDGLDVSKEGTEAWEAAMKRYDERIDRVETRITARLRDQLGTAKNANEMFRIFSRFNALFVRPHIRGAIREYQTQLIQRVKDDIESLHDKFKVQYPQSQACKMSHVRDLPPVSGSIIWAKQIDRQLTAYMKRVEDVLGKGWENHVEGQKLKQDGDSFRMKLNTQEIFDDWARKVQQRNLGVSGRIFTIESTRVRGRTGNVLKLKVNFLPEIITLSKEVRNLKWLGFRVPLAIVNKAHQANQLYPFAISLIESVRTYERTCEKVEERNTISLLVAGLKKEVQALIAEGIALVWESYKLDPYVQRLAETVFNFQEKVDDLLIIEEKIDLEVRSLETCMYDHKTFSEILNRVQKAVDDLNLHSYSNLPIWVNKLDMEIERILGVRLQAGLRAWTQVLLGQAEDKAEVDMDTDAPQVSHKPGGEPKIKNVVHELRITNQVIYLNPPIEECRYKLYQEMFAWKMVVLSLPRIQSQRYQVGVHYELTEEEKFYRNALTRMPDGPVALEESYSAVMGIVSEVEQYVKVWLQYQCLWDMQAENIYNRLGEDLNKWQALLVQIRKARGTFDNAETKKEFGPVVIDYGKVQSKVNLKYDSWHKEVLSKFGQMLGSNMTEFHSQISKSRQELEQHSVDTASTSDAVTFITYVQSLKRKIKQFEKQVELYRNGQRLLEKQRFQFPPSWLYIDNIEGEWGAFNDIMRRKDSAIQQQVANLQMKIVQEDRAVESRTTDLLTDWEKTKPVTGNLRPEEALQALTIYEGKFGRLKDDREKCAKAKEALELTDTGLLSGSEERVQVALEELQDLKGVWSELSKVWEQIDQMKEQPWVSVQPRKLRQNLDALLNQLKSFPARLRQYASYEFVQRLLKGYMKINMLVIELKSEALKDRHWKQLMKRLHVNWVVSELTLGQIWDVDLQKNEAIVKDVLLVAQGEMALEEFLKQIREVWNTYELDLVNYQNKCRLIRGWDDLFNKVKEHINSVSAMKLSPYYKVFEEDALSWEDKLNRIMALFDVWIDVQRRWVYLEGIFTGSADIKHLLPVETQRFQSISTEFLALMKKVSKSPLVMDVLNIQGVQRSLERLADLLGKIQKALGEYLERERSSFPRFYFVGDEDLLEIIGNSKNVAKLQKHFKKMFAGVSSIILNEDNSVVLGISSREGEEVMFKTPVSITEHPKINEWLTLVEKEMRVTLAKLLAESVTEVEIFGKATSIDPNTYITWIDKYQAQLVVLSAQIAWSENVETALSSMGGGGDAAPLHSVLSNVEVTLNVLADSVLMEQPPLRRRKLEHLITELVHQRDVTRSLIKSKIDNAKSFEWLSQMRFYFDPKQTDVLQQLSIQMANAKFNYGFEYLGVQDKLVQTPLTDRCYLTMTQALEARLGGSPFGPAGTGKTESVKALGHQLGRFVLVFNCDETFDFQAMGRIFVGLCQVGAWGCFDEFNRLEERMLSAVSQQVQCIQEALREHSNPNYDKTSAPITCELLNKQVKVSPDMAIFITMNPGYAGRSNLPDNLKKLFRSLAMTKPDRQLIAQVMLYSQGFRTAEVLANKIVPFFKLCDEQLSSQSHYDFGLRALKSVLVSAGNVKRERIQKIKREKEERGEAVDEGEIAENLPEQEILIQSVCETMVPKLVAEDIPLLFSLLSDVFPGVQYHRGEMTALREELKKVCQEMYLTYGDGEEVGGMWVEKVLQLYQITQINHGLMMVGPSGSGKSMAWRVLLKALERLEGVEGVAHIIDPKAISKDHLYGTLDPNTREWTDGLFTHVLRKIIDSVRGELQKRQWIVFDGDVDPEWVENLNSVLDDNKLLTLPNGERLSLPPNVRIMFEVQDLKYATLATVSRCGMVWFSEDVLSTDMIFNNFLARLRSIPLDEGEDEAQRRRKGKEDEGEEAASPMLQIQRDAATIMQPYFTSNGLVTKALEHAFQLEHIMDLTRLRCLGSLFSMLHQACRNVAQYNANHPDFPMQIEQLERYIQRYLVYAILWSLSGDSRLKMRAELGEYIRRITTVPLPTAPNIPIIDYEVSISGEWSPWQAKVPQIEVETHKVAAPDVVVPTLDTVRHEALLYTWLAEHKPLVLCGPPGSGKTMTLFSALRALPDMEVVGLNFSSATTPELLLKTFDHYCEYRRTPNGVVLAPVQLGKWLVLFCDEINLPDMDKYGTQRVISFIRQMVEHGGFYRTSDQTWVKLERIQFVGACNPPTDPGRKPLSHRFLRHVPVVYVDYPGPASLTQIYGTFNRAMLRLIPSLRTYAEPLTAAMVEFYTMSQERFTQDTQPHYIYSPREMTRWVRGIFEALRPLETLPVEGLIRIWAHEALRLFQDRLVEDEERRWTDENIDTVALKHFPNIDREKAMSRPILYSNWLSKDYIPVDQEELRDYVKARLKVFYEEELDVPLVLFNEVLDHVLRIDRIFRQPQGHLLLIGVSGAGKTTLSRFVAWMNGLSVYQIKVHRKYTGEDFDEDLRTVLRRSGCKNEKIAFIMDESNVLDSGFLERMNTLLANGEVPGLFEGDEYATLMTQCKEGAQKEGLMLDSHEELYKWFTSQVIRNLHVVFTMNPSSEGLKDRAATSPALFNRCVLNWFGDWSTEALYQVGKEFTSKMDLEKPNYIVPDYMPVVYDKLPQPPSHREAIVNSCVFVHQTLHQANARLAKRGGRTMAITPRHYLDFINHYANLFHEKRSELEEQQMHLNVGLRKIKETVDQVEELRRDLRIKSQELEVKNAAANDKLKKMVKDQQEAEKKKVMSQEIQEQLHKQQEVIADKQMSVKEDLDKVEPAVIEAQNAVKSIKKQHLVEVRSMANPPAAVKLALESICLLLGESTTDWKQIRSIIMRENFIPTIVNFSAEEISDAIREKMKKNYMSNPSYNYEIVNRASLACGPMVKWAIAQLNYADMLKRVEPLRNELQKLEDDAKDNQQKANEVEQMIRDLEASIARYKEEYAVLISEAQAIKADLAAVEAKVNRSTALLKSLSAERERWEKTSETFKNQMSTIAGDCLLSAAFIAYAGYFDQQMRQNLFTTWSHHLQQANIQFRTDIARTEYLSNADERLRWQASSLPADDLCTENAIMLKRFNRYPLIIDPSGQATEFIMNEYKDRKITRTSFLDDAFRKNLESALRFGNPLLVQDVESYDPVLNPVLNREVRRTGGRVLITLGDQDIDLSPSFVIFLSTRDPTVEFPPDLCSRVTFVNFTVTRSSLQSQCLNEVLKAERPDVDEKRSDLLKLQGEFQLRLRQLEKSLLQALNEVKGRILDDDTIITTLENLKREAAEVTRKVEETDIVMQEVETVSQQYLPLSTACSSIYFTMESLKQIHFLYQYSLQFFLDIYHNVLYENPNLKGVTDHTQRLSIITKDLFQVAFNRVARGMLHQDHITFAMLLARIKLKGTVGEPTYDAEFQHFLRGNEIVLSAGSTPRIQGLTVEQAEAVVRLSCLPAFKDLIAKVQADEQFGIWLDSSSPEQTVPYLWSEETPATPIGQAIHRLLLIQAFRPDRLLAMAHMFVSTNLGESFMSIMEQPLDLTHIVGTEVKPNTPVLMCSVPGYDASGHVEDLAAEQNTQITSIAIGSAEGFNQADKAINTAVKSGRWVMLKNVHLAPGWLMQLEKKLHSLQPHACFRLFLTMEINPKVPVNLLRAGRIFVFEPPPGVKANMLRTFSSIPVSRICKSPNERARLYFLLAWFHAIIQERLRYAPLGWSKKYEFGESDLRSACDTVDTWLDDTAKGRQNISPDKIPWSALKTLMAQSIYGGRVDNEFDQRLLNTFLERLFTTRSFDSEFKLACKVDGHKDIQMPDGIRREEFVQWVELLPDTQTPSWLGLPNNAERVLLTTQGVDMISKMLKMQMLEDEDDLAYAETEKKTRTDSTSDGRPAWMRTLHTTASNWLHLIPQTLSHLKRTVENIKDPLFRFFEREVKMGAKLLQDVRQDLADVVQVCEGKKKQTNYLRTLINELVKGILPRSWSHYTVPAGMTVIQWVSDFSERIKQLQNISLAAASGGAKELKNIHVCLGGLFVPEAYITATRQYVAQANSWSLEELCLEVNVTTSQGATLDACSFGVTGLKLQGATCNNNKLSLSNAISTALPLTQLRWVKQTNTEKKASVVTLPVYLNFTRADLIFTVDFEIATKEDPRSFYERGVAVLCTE
Method in brief: (§1)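 Cell lysate treated in vitro with fragments (50 μM activated esters, 100 μM guanidinylating agents) or DMSO, labelled 1 h at ambient temperature with 0.1 mM STP-alkyne, CuAAC-tagged with light/heavy TEV tags, analysed by MS. R = DMSO/compound MS1 peak-area ratio; lysines with R≥4 called liganded.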

[2] = target: T2, EEF2 Elongation factor 2 (Homo sapiens, UniProt P13639); conditions: for isoTOP-ABPP reactivity ratio at lysine P13639_K235 / isoTOP-ABPP reactivity ratio at lysine P13639_K318: 231 sol
T2 construct: isoTOP-ABPP experiments performed in cell lysates (in vitro); endogenous in cells; host or cells: soluble proteome of human cancer cell lines (MDA-MB-231; Ramos and Jurkat also prepared)
Method in brief: as §1

[3] = target: T3, GBAS Protein NipSnap homolog 2 (Homo sapiens, UniProt O75323); conditions: for isoTOP-ABPP reactivity ratio at lysine O75323_K75: 231 sol
T3 construct: isoTOP-ABPP experiments performed in cell lysates (in vitro); endogenous in cells; host or cells: MDA-MB-231 soluble lysate
T3 sequence (O75323 24-286): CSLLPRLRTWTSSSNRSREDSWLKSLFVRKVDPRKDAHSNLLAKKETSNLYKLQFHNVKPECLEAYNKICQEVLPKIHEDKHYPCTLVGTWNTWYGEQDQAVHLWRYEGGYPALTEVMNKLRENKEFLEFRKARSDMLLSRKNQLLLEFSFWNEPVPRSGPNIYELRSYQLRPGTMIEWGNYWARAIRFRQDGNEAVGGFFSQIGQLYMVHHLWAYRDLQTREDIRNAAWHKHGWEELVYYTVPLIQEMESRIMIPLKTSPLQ
Method in brief: as §1

[4] = target: T4, GSTT2B Glutathione S-transferase theta-2B (Homo sapiens, UniProt P0CG30); conditions: for isoTOP-ABPP reactivity ratio at lysine P0CG30_K53 / isoTOP-ABPP ratio (R) at liganded lysine P0CG30_K53: 50 uM, in vitro; for isoTOP-ABPP reactivity ratio at lysine P0CG30_K53: 231 sol; for isoTOP-ABPP ratio (R) at liganded lysine P0CG30_K53: sol, 231
T4 construct: isoTOP-ABPP experiments performed in cell lysates (in vitro); endogenous in cells; host or cells: MDA-MB-231 soluble lysate
T4 sequence (P0CG30 1-244): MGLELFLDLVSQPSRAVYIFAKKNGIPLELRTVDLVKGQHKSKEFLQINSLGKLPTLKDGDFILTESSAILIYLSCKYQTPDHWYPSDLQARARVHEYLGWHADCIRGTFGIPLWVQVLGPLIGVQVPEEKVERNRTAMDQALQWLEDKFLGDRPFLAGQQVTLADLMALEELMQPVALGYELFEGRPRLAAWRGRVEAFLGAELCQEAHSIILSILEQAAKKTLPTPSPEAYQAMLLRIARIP
Method in brief: as §1

[5] = target: T5, PNPO Pyridoxine-5-phosphate oxidase (Homo sapiens, UniProt Q9NVS9); conditions: for isoTOP-ABPP reactivity ratio at lysine Q9NVS9_K100 / isoTOP-ABPP ratio (R) at liganded lysine Q9NVS9_K100: 50 uM, in vitro; for isoTOP-ABPP reactivity ratio at lysine Q9NVS9_K100: 231 sol; for isoTOP-ABPP ratio (R) at liganded lysine Q9NVS9_K100: sol, 231
T5 construct: endogenous in cells; host or cells: MDA-MB-231 (soluble fraction of lysate)
T5 sequence (Q9NVS9 1-261): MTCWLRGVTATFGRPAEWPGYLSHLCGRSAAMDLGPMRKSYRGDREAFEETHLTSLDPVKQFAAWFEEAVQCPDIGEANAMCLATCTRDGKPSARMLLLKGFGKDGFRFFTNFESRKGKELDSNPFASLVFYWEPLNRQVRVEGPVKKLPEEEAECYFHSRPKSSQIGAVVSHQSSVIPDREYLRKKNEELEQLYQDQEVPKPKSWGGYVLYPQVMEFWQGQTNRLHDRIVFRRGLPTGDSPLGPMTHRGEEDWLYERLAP
Method in brief: as §1

Row | isoTOP-ABPP reactivity ratio at lysine Q14204_K1649 [1] | SMILES | isoTOP-ABPP reactivity ratio at lysine P13639_K235 ([2]; 50 uM, in vitro) | isoTOP-ABPP reactivity ratio at lysine O75323_K75 ([3]; 50 uM, in vitro) | isoTOP-ABPP reactivity ratio at lysine P0CG30_K53 [4] | isoTOP-ABPP reactivity ratio at lysine Q9NVS9_K100 [5] | isoTOP-ABPP reactivity ratio at lysine P13639_K318 ([2]; 50 uM, in vitro) | also measured
1 | 4.2 | O=C(CN1C(=O)c2ccccc2C1=O)Oc1c(F)c(F)c(F)c(F)c1F [fragment 27, Pentafluorophenyl 2-(1,3-dioxoisoindolin-2-yl)acetate] | 5.7 | 20.0 | 0.9 | 1.0 | – | –
2 | 1.0 | CCn1cc(C(=O)Oc2c(F)c(F)c(F)c(F)c2F)c(=O)c2ccc(C)nc21 [fragment 28, Pentafluorophenyl 1-ethyl-7-methyl-4-oxo-1,4-dihydro-1,8-naphthyridine-3-carboxylate] | 1.4 | 1.0 | 1.0 | 0.9 | 1.6 | –
3 | – | O=C(Oc1ccc([N+](=O)[O-])cc1[N+](=O)[O-])C(c1ccccc1)c1ccccc1 [fragment 30, 2,4-Dinitrophenyl 2,2-diphenylacetate] | 1.4 | 1.1 | 0.6 | 1.0 | 1.4 | –
4 | – | O=C(Oc1ccc([N+](=O)[O-])cc1[N+](=O)[O-])c1cc(C(F)(F)F)cc(C(F)(F)F)c1 [fragment 31, 2,4-Dinitrophenyl 3,5-bis(trifluoromethyl)benzoate] | 1.1 | 0.8 | 0.8 | 1.0 | 1.2 | –
5 | – | O=C(Oc1ccc([N+](=O)[O-])cc1[N+](=O)[O-])C1CCN(C(=O)OCc2ccccc2)CC1 [fragment 34, 1-Benzyl 4-(2,4-dinitrophenyl) piperidine-1,4-dicarboxylate] | – | – | – | – | – | isoTOP-ABPP ratio (R) at liganded lysine P13639_K235 ([2]; 50 uM, in vitro, sol, 231): 1.0; isoTOP-ABPP ratio (R) at liganded lysine P0CG30_K53 [4]: 0.5; isoTOP-ABPP ratio (R) at liganded lysine Q9NVS9_K100 [5]: 0.9
6 | – | O=C(Oc1ccc([N+](=O)[O-])cc1[N+](=O)[O-])c1ccc(-c2ccccc2)cc1 [fragment 37, 2,4-Dinitrophenyl [1,1′-biphenyl]-4-carboxylate] | – | – | – | – | – | isoTOP-ABPP ratio (R) at liganded lysine P13639_K235 ([2]; 50 uM, in vitro, sol, 231): 1.0; isoTOP-ABPP ratio (R) at liganded lysine P13639_K318 ([2]; 50 uM, in vitro, sol, 231): 1.0; isoTOP-ABPP ratio (R) at liganded lysine O75323_K75 ([3]; 50 uM, in vitro, sol, 231): 1.6; isoTOP-ABPP ratio (R) at liganded lysine P0CG30_K53 [4]: 0.7; isoTOP-ABPP ratio (R) at liganded lysine Q9NVS9_K100 [5]: 0.9
7 | – | O=C(Oc1c(F)c(F)cc(F)c1F)c1cc(C(F)(F)F)cc(C(F)(F)F)c1 [fragment 48, 2,3,5,6-Tetrafluorophenyl 3,5-bis(trifluoromethyl)benzoate] | – | – | – | – | – | isoTOP-ABPP ratio, lysine P13639_K235 ([2]; 50 uM_231_sol_in vitro): 1.2; isoTOP-ABPP ratio, lysine P13639_K318 ([2]; 50 uM_231_sol_in vitro): 1.1; isoTOP-ABPP ratio, lysine O75323_K75 ([3]; 50 uM_231_sol_in vitro): 0.9; isoTOP-ABPP ratio, lysine P0CG30_K53 ([4]; 50 uM_231_sol_in vitro): 0.9; isoTOP-ABPP ratio, lysine Q9NVS9_K100 ([5]; 50 uM_231_sol_in vitro): 0.9
8 | – | COC(=O)NC(=NC(=O)OCC1c2ccccc2-c2ccccc21)n1cccn1 [fragment 49, N-Methoxycarbonyl-N′-9-fluorenylmethoxycarbonyl-pyrazole-1-carboxamidine] | – | – | – | – | – | isoTOP-ABPP ratio, lysine P13639_K235 ([2]; 100 uM_231_sol_in vitro): 6.2; isoTOP-ABPP ratio, lysine P13639_K318 ([2]; 100 uM_231_sol_in vitro): 2.0; isoTOP-ABPP ratio, lysine O75323_K75 ([3]; 100 uM_231_sol_in vitro): 1.7; isoTOP-ABPP ratio, lysine P0CG30_K53 ([4]; 100 uM_231_sol_in vitro): 3.1; isoTOP-ABPP ratio, lysine Q9NVS9_K100 ([5]; 100 uM_231_sol_in vitro): 3.3

Row | SMILES | isoTOP-ABPP reactivity ratio at lysine Q14204_K1649 [1] | isoTOP-ABPP reactivity ratio at lysine P13639_K235 ([2]; 50 uM, in vitro) | isoTOP-ABPP reactivity ratio at lysine O75323_K75 ([3]; 50 uM, in vitro) | isoTOP-ABPP reactivity ratio at lysine P0CG30_K53 [4] | isoTOP-ABPP reactivity ratio at lysine Q9NVS9_K100 [5] | isoTOP-ABPP reactivity ratio at lysine P13639_K318 ([2]; 50 uM, in vitro) | also measured
9 | Cn1cc(CC(=O)Oc2ccc([N+](=O)[O-])cc2[N+](=O)[O-])c2ccccc21 [fragment 32, 2,4-Dinitrophenyl 2-(1-methyl-1H-indol-3-yl)acetate] | 1.2 | 1.4 | – | 0.8 | 3.6 | 1.5 | –
